One experiment concerns SHSY5Y cells. The experiment in a line: Cell death/survival after transfection, trypan blue exclusion. In kind it is cell-based, human. On the procedure:
(§1) Cell culture and transfection: The human neuroblastoma SHSY5Y cells were transfected in triplicate by vector alone, GFP-α-syn, pCMV-CD, or co-transfected by GFP-α-syn (or A53T, MOP, Y125A mutant α-syn) and pCMV-CD (or mutant CD) by Amaxa method as described by the vendor. Transfection efficiency was ˜80% as assessed by cells with or without GFP. Seventy-two (72) hours after transfection, cells were harvested. For chloroquine (10 μM) treatment, the chemicals were added 48 hours after transfection, cells were harvested […]. Live cells were counted by trypan blue exclusion. Relative cell survival was calculated as number of live cells after transfection by pCMV-CD and/or GFP-α-syn divided by live cells after transfection by vector alone. Elevated expression of α-syn or cathepsins was confirmed by Western blot analyses using whole cell extracts.
Overexpression of CD is neuroprotective against α-syn toxicity in mammalian cells. Excessive α-syn induces neuron death in cell cultures, and in a variety of genetic and viral delivery based animal models. To examine the potential of elevating CD level as a means to reduce α-syn-induced cell death, human neuroblastoma SHSY5Y cells were transfected with α-syn, in the absence or presence of increased CD expression (FIG. 4B). Similar to previous studies of α-syn overexpression in yeast, worms and rat neurons, it was observed that overexpression of wildtype α-syn induced robust cell death in SHSY5Y cells.
α-syn point mutation at the major CD cleavage site results in resistance to CD neuroprotection. α-syn is rich in hydrophobic amino acids (52%) and is natively unfolded. CD has a known specificity in recognizing hydrophobic residues. Although α-syn contains many putative CD cleavage sites, the main cleavage occurs at A124-Y125 (Hossain et al., J. Alzheimers Dis. 3:577-584 (2001)). It was observed that CD is also protective against PD-causing mutant α-syn induced-cell death in SHSY5Y cells (FIG. 4D). […] Furthermore, CD is ineffective at attenuating chloroquine- or staurorosporine-induced cell death (FIG. 4D).

For a further experiment, the system named is α-syn. In words: Western blot of α-syn after CD co-transfection. As to conditions: SHSY5Y cells, co-expression with α-syn-GFP. It is filed as cell-based, human. On the procedure: as §1
Western blot: Wildtype and CD−/− cortex (n≧3 each genotype) were homogenized in 10 volumes of ice-cold lyses buffer (50 mM Tris-HCl pH 7.4, 175 mM NaCl, 5 mM EDTA), sonicated for 10 seconds, add TritonX-100 to 1% and incubated for 30 minutes on ice. Homogenates were then centrifuges at 15,000 g for 15 min at 4° C. to separate supernatants (fractions soluble in 1% TritonX-100) and pellets (TritonX-100-insoluble fractions) as described in Giasson et al., Neuron 34:521-33 (2002). Pellets were resuspended in lyses buffer containing 2% SDS. […]
For orientation: Immunoblotting shows a protein as a band on a membrane.

The next experiment deals with dopaminergic neurons. In words: DA neurodegeneration analysis in α-syn transgenic worms. In kind it is in vivo, C. elegans. As to conditions: for protection from α-syn-induced dopaminergic neurodegeneration: 7 day old worms overexpressing human cDNA with α-syn. On the procedure:
For the DA neurodegeneration analysis, strain UA54 [baEx45; Pdat-1::α-syn, Pddat-1::gfp, Pdat-1 j::CD, rol-6 (su1006)], UA90 [baEx69; Pdat-1::α-syn, Pdat-1j::CD D295R, rol-6 (su1006)], UA91 [baEx70; Pdat-1::α-syn, Pdat-1::CD F2291, rol-6 (su1006)], UA53 [baEx44; Pdat-1::α-syn, rol-6 (su1006)], and UA55 [baEx46; Pdat-1::α-syn, Pdat-1::CL, rol-6 (su1006)] were generated by injecting 50 μg/ml of expression plasmid containing the human cathepsin cDNA and 50 μg/ml of rol-6 into an integrated line of UA44 [baInl1; Pdat-1::α-syn, (Cao et al., J. Neurosci. 25:3801-12 (2005))]. Three stable lines were randomly selected for neurodegeneration analysis. The 6 anterior DA neurons (4 CEP and 2 ADE neurons) of 30 animals/trial were examined for neurodegeneration when the animals were 7 days old. 90 animals from each of three CD (or CD D295R, CD F229I, CB, and CL) transgenic lines were analyzed (3 lines×3 trials of 30 animals/trial=270 total animals scored).
It was further investigated whether human CD attenuates the loss of dopaminergic neurons in a C. elegans model of α-syn-induced neurodegeneration (Cooper et al., Science 313:324-8 (2006)).

Entries after “also recorded” stand apart in the source; their conditions may differ.

On to “CD: principal lysosomal aspartate protease; human CD overexpressed by transfection or transgene (pCMV-CD)”, for which the staurosporine-induced cell death result with SHSY5Y cells (2 μM staurosporine) is reported as “ineffective; also recorded: does not reduce”. Besides, the chloroquine-induced cell death entry in the experiment with SHSY5Y cells (10 μM chloroquine) is recorded as “ineffective; also recorded: does not reduce”. In addition, in the experiment with SHSY5Y cells (co-transfection with A30P mutant α-syn), the “A30P mutant α-syn-induced cell death” value is on record as “protective; also recorded: reduced”. In addition, the “A53T mutant α-syn-induced cell death” value in the experiment on SHSY5Y cells (co-transfection with A53T mutant α-syn) is recorded as “protective; also recorded: reduced”. In addition, the “Y125A mutant α-syn-induced cell death” value in the experiment with SHSY5Y cells (co-transfection with Y125A mutant α-syn (CD cleavage site)) is given as “resists neuroprotection by elevated CD; also recorded: does not reduce”. Besides, the “protection against α-syn overexpression-induced cell death” value in the experiment with SHSY5Y cells (wildtype GFP-α-syn co-transfection, 72 hours, viable cells by trypan blue) is reported as “provided significant protection; also recorded: protected against α-syn overexpression-induced cell death”. Also, the “truncation/cleavage of α-syn-GFP” value in the experiment with α-syn was “produced a cleavage product of α-syn-GFP; also recorded: resulted in truncation of α-syn-GFP”. For the same substance, the “protection from α-syn-induced dopaminergic neurodegeneration” value in the experiment with dopaminergic neurons is on record as “significantly protected against dopaminergic neurodegeneration; also recorded: protects worms from neurodegeneration”. The “percentage of worms exhibiting the wildtype neuronal complement of all 6 anterior DA neurons” value in the experiment with dopaminergic neurons (7 day old worms overexpressing α-syn in DA neurons, n=270, α-syn alone 15-16%) is given as 30%.

Consider “CL: related human cathepsin gene product, representative lysosomal cysteine protease, overexpressed in worms”, for which the “protection from α-syn-induced dopaminergic neurodegeneration” value in the experiment on dopaminergic neurons is reported as “did not attenuate dopaminergic neuron death; also recorded: did not have the same effect as the wildtype CD”.

For the substance “D295R: enzymatic mutant of CD, human cDNA overexpressed in transgenic worms”, the “protection from α-syn-induced dopaminergic neurodegeneration” value in the experiment on dopaminergic neurons is listed as “did not attenuate dopaminergic neuron death; also recorded: did not have the same effect as the wildtype CD”.

The values above are taken from patent publication US20110064721A1, “CATHEPSIN-D NEUROPROTECTION” (THE UAB RESEARCH FOUNDATION, priority 2007, published 2011).
